Read-outs that look alike come from different tables or passages of the source. A value given as a limit tells only on which side of the number the result lay.

Assay [1] has as its target T1, BTK (Homo sapiens (Human), UniProt Q06187). Description: Mass spectrometry for BTK (intact protein). Format: binding. The following applies: 1 hr, 10× fold excess of compound. How it is done: Intact BTK was incubated for 1 hr at a 10× fold excess of I-7 to protein. Aliquots (2 μl) of the samples were diluted with 10 μl of 0.1% TFA prior to micro C4 ZipTipping directly onto the MALDI target using Sinapinic acid as the desorption matrix (10 mg/ml in 0.1% TFA:Acetonitrile 20:80).

The target in a further assay is ITK (Homo sapiens (Human), UniProt Q08881). Put plainly: Omnia assay for potency assessment against active forms of ITK kinase. The assay is classed as biochemical. Particulars: [ITK]=10 nM, [ATP]=25, [Y6-Sox]=10 μM; read-out: ITK Inhibition. How it is done:
[ITK]=10 nM, [ATP]=25 [Y6-Sox]=10 μM (ATP KMapp=33 μM).

Another assay concerns the target EGFR T790M (Homo sapiens (Human), UniProt P00533, T790M). Put plainly: EGFR mutant T790M inhibition assay. The assay is classed as biochemical. How it is done:
The Omnia Assay Protocol for potency assessment against EGFR is performed as described in Example 251 above except that the EGFR-WT- and EGFR T790M/L858R-modified optimized reagent conditions are: […]

Assay [2] concerns the target T1, BTK. Put plainly: Human primary B cell covalent probe occupancy in vitro. The assay is classed as cell-based. Particulars: human primary B cells, 1 h at 37° C., probe I-215 ELISA. How it is done:
(§1) In order to determine the amount of free BTK in cell or tissue lysates, an ELISA protocol was employed that utilizes a biotinylated probe compound that binds only to free, unoccupied BTK. The conjugated biotin is captured on a streptavidin-coated ELISA plate and detected with a mouse anti-BTK antibody (Becton Dickinson, Franklin Lakes, N.J., USA) and a secondary goat anti-mouse HRP antibody (Zymed, South San Francisco, Calif., USA).
(§2) All samples were prepared with equal concentrations of Biorad lysis buffer (Hercules, Calif., USA), 0.5% bovine serum albumin in PBS with 0.05% Tween-20 to give a final concentration of 1 μM I-215. Samples were incubated in a mixing plate for 1 hr at room temperature while shaking to allow probe compound I-215 to bind to free BTK. After incubation with I-215, samples were added to a washed, streptavidin-coated ELISA plate (Pierce, Rockford, Ill., USA) and incubated for 1 hr at room temperature while shaking. […] TMB was added to the plate, and OD650 was monitored until reaching 1 OD unit. […] The plate was analyzed using Gen 5 software, and a 4 Parameter Logistic curve was employed to quantitate samples. […]
Human primary B cells were isolated as described in Example 256, then resuspended in RPMI media (10% serum). The compound to be analyzed was added at a 1:1000 dilution to media. […] The supernatant was analyzed as described in Example 283 using I-215.
(In an ELISA, binding on a coated surface is turned into a signal by an enzyme label.)

A further assay in a line: PG-PS arthritis model. The assay is classed as in vivo. The following applies: female Lewis rats, oral gavage daily through day 22. How it is done: On day 0, female Lewis rats received an intraperitoneal (IP) bolus of peptidoglycan-polysaccharide (PG-PS) in an amount of 15 μg/g rat body weight. Baseline control rats received an IP bolus of PBS. The vehicle and treatment groups were dosed via oral gavage just prior to PG-PS administration. Treatment with vehicle and compound continued each day through day 22. Maximal lateral ankle width measurements of both rear limbs were collected with a caliper throughout the study. On day 23, study was terminated and the final change in ankle swelling was calculated and compared to vehicle controls.

The subject of assay [3] is TI-2 independent B cell activation. Description: In vivo thymus-independent (TI-2) B cell activation. Particulars: C57/B6 mice, 100 mg/kg daily day 0 through 5, TNP-Ficoll, serum day 6.
Assay [4] deals with T1, BTK. Put plainly: BTK occupancy from in vitro samples by ELISA (Ramos cells). Format: cell-based. The following applies: ELISA with probe I-215. How it is done: as §1
All samples were prepared with equal concentrations of Biorad lysis buffer (Hercules, Calif., USA), 0.5% bovine serum albumin in PBS with 0.05% Tween-20 to give a final concentration of 1 μM I-215. Samples were incubated in a mixing plate for 1 hr at room temperature while shaking to allow probe compound I-215 to bind to free BTK. After incubation with I-215, samples were added to a washed, streptavidin-coated ELISA plate (Pierce, Rockford, Ill., USA) and incubated for 1 hr at room temperature while shaking. The plate was then washed with PBS containing 0.05% Tween-20 using an automatic plate washer. Anti-BTK antibody was prepared at 1:1000 dilution in 0.5% BSA in PBS (0.05% Tween-20) and added to the ELISA plate. The plate was incubated for 1 hr at room temperature while shaking. The plate was washed as described above and the secondary HRP antibody was prepared at 1:5000 dilution in 0.5% BSA in PBS (0.05% Tween-20). The plate was incubated and washed as described above. TMB was added to the plate, and OD650 was monitored until reaching 1 OD unit. The reaction was then stopped with addition of H2SO4. The plate was analyzed using Gen 5 software, and a 4 Parameter Logistic curve was employed to quantitate samples. Recombinant BTK (Invitrogen, Carlsbad, Calif., USA) was used for the standard curve.
A concentration designated as “A” is greater than 1 nM; a concentration designated as “B” is greater than 10 nM; and a concentration designated as “C” is greater than 50 nM.

For assay [5], the target named is T1, BTK. Put plainly: Omnia assay for potency assessment against BTK. Format: biochemical. The following applies: for IC50: [BTK]=5 nM, Omnia assay, read-out: BTK Inhibition (IC50). How it is done: The modified BTK-optimized reagent conditions for the above protocol are:
[BTK]=5 nM, [ATP]=[…], [Y5-Sox]=[…] (ATP KMapp˜[…]).

Assay [6] deals with T1, BTK. Description: BTK Ramos cellular assay (PLCγ2 phosphorylation). Format: cell-based. The following applies: Ramos cells, 1 hour compound, anti-IgM stimulation, p-PLCγ2; read-out: BTK Inhibition (IC50), BTK Ramos cellular inhibition.
In assay [7] the target is BTK (Canis lupus familiaris, UniProt A0A8I3P3Z9). Put plainly: Dog primary B cell covalent probe occupancy in vitro. Format: cell-based. The following applies: canine PBMCs, one hour at 37° C., probe I-215 ELISA. How it is done: as §1, §2
Sequence of BTK (Canis lupus familiaris, UniProt A0A8I3P3Z9) (A0A8I3P3Z9 1-664): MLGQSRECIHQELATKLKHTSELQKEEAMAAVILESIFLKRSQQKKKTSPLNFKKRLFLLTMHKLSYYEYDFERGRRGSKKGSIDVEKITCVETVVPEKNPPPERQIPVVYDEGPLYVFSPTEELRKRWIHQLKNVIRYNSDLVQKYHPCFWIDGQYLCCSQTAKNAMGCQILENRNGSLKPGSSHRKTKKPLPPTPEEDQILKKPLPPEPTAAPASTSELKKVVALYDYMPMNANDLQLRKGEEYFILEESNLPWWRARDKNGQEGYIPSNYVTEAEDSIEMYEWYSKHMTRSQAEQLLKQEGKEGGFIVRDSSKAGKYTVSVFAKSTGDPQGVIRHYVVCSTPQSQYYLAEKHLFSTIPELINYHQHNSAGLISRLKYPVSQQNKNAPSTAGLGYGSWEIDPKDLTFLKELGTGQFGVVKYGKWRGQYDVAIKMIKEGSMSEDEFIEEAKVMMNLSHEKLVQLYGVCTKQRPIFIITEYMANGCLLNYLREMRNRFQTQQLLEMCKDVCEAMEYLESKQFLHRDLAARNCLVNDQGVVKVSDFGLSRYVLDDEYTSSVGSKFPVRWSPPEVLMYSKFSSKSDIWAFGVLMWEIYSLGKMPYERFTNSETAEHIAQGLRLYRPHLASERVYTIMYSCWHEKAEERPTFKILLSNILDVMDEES
Canine whole blood (30 mL) was diluted to 50 mL total with 1×PBS and layered on top of Histopaque-1077 (Sigma Aldrich). […] The supernatant was analyzed as described in Example 283 using I-215. […]

A further assay addresses EGFR-WT (Homo sapiens (Human), UniProt P00533). Put plainly: Omnia assay for potency assessment against EGFR (WT).
The next assay has as its target EGFR-T790M/L858R (Homo sapiens (Human), UniProt P00533, L858R/T790M). Put plainly: Omnia assay for potency assessment against EGFR (T790M/L858R). Particulars: read-out: EGFR (T790M/L858R); EGFR mutant T790M/L858R.
A further assay has as its target ERBB1 (Homo sapiens (Human), UniProt P00533). Description: Z'-LYTE kinase inhibition, ErbB1. Format: biochemical. How it is done: (§3) Compounds of the present invention were assayed as inhibitors of one or more of ErbB1, ErbB2, and/or ErbB4 in a manner substantially similar to the method described by Invitrogen Corp (Invitrogen Corporation, 1600 Faraday Avenue, Carlsbad, Calif., CA; http://www.invitrogen.com/downloads/Z-LYTE_Brochure_1205.pdf) using the Z'-LYTE™ biochemical assay procedure or similar biochemical assay. The Z'-LYTE™ biochemical assay employs a fluorescence-based, coupled-enzyme format and is based on the differential sensitivity of phosphorylated and non-phosphorylated peptides to proteolytic cleavage.

For another assay, the target named is ERBB4 (HER4) (Homo sapiens (Human), UniProt Q15303). Description: Z'-LYTE kinase inhibition, ErbB4. The assay is classed as biochemical. How it is done: as §3
The test system of a further assay is Human naïve B cells. Description: Human primary B cell proliferation assay. Format: cell-based. How it is done: Human naïve B cells were purified from 100 mL whole blood using a MACS purification kit designed to isolate CD19+, IgD+ cells by negative selection. Purified naïve B cells were resuspended in RPMI complete and stimulated with 5 μg/ml α-IgM for 72 hours. ^3H-Thymidine was included in the culture media for the final 16 h, cells were harvested and ^3H incorporation measured. Inhibition of B cell proliferation correlates with inhibition of BTK substrate phosphorylation after α-IgM stimulation.

Sequence of EGFR-WT (P00533 668-1210): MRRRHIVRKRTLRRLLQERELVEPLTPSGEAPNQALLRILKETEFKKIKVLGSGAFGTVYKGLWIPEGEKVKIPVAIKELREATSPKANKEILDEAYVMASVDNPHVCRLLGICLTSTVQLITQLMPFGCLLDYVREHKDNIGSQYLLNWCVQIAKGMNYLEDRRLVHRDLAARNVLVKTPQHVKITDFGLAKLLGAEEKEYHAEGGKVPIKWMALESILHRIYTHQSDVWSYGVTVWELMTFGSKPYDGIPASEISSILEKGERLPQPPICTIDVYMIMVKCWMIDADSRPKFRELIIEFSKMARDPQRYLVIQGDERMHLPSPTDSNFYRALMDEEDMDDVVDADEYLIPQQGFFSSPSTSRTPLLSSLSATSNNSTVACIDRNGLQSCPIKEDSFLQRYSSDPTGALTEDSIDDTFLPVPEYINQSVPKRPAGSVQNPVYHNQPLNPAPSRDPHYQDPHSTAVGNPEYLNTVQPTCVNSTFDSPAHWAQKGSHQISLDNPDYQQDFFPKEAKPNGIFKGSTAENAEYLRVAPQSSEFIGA
Sequence of ITK (Q08881 whole entry): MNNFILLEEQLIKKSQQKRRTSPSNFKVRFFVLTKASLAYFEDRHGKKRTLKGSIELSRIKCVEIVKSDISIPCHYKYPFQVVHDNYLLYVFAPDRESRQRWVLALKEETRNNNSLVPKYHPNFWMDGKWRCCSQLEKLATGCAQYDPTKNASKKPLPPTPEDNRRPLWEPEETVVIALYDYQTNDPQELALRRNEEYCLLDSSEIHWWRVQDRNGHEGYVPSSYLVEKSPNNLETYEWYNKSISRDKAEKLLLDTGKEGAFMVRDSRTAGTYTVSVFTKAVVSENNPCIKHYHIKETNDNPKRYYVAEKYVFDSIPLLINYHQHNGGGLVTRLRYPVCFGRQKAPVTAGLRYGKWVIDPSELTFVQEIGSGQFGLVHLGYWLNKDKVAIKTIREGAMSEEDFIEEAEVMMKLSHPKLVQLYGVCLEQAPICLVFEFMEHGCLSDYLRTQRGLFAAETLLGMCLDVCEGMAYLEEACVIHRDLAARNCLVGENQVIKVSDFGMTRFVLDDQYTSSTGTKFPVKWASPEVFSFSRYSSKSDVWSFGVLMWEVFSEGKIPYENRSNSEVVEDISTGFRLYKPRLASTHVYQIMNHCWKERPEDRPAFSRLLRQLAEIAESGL
Sequence of EGFR-T790M/L858R (P00533 25-1210 T790M/L858R): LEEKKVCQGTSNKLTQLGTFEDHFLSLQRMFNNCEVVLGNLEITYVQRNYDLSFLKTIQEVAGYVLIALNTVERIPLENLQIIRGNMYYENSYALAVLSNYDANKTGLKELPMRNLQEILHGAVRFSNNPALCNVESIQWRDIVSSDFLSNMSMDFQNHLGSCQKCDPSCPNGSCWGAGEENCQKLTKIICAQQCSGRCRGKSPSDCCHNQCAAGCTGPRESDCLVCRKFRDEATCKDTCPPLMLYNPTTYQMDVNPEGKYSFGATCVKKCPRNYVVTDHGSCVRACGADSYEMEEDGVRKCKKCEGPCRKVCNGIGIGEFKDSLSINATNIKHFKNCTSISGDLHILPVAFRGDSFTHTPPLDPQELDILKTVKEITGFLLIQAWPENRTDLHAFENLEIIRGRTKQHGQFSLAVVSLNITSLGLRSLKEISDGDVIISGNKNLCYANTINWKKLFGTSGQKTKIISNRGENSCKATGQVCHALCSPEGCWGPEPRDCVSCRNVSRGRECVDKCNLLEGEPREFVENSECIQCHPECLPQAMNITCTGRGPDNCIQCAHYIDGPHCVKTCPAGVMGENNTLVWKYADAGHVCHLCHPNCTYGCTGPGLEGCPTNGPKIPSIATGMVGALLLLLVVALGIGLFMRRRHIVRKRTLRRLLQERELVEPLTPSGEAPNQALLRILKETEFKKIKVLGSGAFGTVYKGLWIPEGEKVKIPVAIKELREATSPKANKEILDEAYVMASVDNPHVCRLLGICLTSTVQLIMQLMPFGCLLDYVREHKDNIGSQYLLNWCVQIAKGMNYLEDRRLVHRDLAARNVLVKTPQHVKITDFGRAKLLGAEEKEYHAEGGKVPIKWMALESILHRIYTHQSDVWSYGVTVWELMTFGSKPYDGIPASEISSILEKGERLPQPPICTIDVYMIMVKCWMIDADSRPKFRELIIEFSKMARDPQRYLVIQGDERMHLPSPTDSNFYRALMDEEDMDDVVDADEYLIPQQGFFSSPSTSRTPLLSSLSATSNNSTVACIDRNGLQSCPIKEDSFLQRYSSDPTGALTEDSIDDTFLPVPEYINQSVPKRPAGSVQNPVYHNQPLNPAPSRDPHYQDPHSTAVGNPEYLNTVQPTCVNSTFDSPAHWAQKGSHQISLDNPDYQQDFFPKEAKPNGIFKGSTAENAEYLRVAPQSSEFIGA
T1 sequence (Q06187 whole entry): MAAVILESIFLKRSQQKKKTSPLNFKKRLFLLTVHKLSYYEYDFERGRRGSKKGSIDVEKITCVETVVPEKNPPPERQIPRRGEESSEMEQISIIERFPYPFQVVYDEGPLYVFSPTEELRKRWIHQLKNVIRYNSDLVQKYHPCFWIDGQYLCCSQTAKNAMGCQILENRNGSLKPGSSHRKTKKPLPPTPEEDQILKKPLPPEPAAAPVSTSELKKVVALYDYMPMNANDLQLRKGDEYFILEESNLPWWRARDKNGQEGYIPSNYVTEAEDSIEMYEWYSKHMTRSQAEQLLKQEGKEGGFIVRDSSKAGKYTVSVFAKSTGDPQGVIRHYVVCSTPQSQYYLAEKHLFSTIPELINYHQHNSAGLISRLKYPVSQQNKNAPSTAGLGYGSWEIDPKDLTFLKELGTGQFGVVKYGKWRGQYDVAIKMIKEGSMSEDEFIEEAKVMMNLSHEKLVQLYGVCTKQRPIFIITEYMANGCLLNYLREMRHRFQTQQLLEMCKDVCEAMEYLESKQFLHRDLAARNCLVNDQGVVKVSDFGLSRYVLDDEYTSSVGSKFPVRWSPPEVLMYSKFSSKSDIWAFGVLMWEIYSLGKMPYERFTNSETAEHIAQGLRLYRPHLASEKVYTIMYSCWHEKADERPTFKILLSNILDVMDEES
Sequence of EGFR T790M (P00533 25-1210 T790M): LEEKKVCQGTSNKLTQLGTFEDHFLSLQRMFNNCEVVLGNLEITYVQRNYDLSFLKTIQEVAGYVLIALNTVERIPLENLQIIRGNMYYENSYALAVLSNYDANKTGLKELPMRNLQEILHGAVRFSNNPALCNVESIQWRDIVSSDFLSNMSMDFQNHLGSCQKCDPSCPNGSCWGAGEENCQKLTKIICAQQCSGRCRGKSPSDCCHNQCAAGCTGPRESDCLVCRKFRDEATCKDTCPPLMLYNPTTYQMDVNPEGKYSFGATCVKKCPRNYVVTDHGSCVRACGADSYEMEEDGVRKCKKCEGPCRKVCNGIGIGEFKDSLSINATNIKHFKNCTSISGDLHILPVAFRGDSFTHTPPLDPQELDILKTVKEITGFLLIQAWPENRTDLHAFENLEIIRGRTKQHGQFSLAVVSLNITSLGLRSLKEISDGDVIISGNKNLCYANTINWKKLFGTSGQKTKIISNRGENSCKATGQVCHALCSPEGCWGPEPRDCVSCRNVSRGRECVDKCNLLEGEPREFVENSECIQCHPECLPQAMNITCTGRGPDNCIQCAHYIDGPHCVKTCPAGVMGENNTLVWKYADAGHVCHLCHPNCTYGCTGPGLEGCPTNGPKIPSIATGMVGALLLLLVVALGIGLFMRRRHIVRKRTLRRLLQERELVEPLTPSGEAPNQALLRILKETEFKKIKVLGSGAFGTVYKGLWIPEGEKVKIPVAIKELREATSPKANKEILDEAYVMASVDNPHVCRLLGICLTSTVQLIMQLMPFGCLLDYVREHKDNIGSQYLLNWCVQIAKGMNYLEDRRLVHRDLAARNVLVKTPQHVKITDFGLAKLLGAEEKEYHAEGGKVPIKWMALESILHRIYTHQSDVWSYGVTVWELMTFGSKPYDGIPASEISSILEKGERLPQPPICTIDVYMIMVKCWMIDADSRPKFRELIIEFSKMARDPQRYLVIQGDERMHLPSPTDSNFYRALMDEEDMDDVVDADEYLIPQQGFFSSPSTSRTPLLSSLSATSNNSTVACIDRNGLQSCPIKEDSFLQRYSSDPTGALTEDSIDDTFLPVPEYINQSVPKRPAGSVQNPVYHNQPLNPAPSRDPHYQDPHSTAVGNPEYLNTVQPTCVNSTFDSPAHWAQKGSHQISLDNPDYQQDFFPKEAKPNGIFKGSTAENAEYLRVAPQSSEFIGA

On to `C=CC(=O)Nc1cccc(Nc2nc(Nc3ccc(OCCOC)c(F)c3)ncc2F)c1` [Compound I-96, N-(3-(2-(3-fluoro-4-(2-methoxyethoxy)phenylamino)-5-fluoropyrimidin-4-ylamino)phenyl)acrylamide], for which the “covalent modification of BTK (mass spectrometry)” value on BTK [1] is “completely modify”. Further, the IC50 on ITK is 0.01 to 0.1 µM; against EGFR T790M, less than 0.01 µM; on BTK [5], less than 0.01 µM; on BTK [6], less than 0.01 µM; against EGFR-WT, 0.01 to 0.1 µM; on EGFR-T790M/L858R, less than 0.01 µM. Also, the “concentration at which at least 50% of BTK is occupied” value on BTK [2] and at BTK [7] was “greater than 10 nM” in each case. Also, the “% inhibition ankle swelling” value in the assay “PG-PS arthritis model” is 82.8%. For the same compound, the “% Inhibition IgG3 (1:100)” value in assay [3] came to 37.2%. Further, the “% Inhibition IgM (1:1600)” value in [3] is 43%. Moreover, on BTK [4], the “>50% occupancy (concentration at which >50% of BTK is occupied)” value is reported as “A (greater than 1 nM)”. Also, the “>90% occupancy (concentration at which >90% of BTK is occupied)” value at BTK [4] is given as “B (greater than 10 nM)”.

Turning to `C=CC(=O)Nc1cccc(Nc2nc(Nc3ccc(OCCOC)cc3)ncc2F)c1` [Compound I-182, N-(3-(5-fluoro-2-(4-(2-methoxyethoxy)phenylamino)pyrimidin-4-ylamino)phenyl)acrylamide], on BTK [1], the “covalent modification of BTK (mass spectrometry)” value is reported as “completely modify”. In addition, the IC50 at ITK lay in the range of 0.01 to 0.1 µM. The “concentration at which at least 50% of BTK is occupied” value at BTK [2] was “greater than 10 nM”. Also, in assay [3], the “% Inhibition IgG3 (1:100)” value turned out to be 40% and the “% Inhibition IgM (1:1600)” value is given as 25%. Also, at BTK [4], the “>50% occupancy (concentration at which >50% of BTK is occupied)” value is recorded as “A (greater than 1 nM)” and the “>90% occupancy (concentration at which >90% of BTK is occupied)” value is on record as “C (greater than 50 nM)”. For the same compound, on EGFR-WT (read-out: EGFR (wild type inhibition), EGFR wild type), the IC50 is less than 0.01 µM.

For `C=CC(=O)Nc1ccc(C)c(Nc2nccc(-c3cccnc3)n2)c1` [Compound I-56, N-(4-methyl-3-(4-(pyridin-3-yl)pyrimidin-2-ylamino)phenyl) acrylamide], the IC50 was 2.23 µM on ERBB1; 2.17 µM at ERBB4 (HER4); 0.1 to 1 µM at ITK; 0.01 to 0.1 µM against EGFR T790M; 0.1 to 1 µM at BTK [5]; 0.01 to 0.1 µM at EGFR-WT. Also, the IC50 on EGFR-T790M/L858R was less than 0.01 µM.

For the compound `CCC(=O)Nc1cccc(Nc2nc(Nc3ccccc3)ncc2C)c1` [I^R-7, N-(3-(5-methyl-2-(phenylamino)pyrimidin-4-ylamino)phenyl) propionamide], the “activity in the naïve B cell proliferation assay” value in the assay with Human naïve B cells was “not active”. Besides, the “biochemical activity against BTK” value on BTK [5] was “biochemically inactive”. For the same compound, the IC50 lay within 0.1 to 1 µM on BTK [5], 1 to 10 µM on EGFR-WT and 1 to 10 µM on EGFR-T790M/L858R.

The record behind these values is patent US9987276B2 (Celgene CAR LLC, priority 2008, dated 2018).
